Entries after “also recorded” stand apart in the source; their conditions may differ. Marks after values point to notes of the source that are not given here. Blank lines part the entries; values can stand above or below the molecule they belong to.
Tests used:
[1] = target: T1, wild-type human 5-HT3A receptors (Homo sapiens, UniProt P46098); assay: Two electrode voltage clamp in Xenopus oocytes, agonist and modulator responses; type: cell-based
T1 construct: expressed in transfected cells; host or cells: Xenopus laevis oocytes
T1 sequence (P46098 1-484 isoform P46098-4): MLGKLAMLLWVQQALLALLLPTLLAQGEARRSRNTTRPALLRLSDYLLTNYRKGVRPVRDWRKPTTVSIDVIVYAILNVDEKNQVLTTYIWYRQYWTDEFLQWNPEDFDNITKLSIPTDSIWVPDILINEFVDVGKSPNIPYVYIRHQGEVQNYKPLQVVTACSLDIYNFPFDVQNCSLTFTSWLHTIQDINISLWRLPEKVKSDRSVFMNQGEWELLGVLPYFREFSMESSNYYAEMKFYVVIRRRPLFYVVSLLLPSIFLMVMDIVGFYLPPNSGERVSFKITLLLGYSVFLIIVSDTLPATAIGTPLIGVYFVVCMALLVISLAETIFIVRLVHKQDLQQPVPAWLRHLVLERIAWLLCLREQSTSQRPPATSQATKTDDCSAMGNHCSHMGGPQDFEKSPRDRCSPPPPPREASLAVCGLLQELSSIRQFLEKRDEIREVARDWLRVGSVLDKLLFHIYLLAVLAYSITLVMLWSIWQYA

[2] = target: T2, Chimera 8 (Homo sapiens, UniProt P46098, I238M/V237T); assay: Two electrode voltage clamp in Xenopus oocytes, reverse 5HT3-α7 chimera; type: cell-based
T2 construct: expressed in transfected cells; host or cells: Xenopus laevis oocytes
T2 sequence (P46098 with tags, fused parts or gaps isoform P46098-4 V243T/I244M): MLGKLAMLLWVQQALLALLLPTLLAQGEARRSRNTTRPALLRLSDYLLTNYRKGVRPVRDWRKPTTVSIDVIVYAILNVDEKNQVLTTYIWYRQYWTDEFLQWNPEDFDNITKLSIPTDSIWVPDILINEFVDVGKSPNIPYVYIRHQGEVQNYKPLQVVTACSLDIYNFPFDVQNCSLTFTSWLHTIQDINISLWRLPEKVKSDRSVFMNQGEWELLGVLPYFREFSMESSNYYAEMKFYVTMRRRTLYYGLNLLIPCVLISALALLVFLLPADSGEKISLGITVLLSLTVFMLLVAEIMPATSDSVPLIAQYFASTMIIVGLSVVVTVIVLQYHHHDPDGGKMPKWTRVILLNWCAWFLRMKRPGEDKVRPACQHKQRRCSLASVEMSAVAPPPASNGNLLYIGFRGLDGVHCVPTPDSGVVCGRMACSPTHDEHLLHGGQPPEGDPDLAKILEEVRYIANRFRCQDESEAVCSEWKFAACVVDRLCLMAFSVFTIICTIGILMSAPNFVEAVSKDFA
Description: Xenopus laevis oocytes were prepared and injected as previously described {Eisele, 1993 #2; Krause, 1998 #4}. Briefly, ovaries were harvested from female Xenopus. Isolation of the oocytes was obtained by enzymatic dissociation using collagenase type I in a medium deprived of calcium and by gentle mechanical agitation for approximately 3 hours. Oocytes stage 5-6 were manually selected on the next day and injected into the nucleus with 2 ng plasmid containing the cDNA of interest. Oocytes were then placed in a 96 well microtiter plate in Barth solution and used for electrophysiological investigation two to five days later. All recordings were performed at 18° C. and cells were superfused with OR2 medium containing in mM:NaCl 82.5, KCI 2.5, HEPES 5, CaCl2.2H2O 2.5, MgCl2.6H2O 1, pH 7.4, and 0.5 μM atropine was added to prevent possible activation of endogenous muscarinic receptors. Unless indicated cells were held at −100 mV using a two electrode voltage clamp apparatus connected to a Geneclamp amplifier (Molecular Devices). Data were captured and analyzed using data acquisition and analysis software. […] Values indicated throughout the text are given with their respective standard error of the mean (SEM). For statistical analysis we used the unpaired, two-tailed Student's T test using either excel (Microsoft) or Matlab (Mathworks Inc.).
To examine the putative role of the transmembrane domains, a reverse chimera comprising the 5-HT3 ligand binding domain and the transmembrane domain of α7 was designed and constructed. […] See FIGS. 13A and B. To best evaluate a putative allosteric modulation, currents evoked by low agonist concentration were also investigated, but exposure to either NS-1738 or PNU-120596 caused no detectable modification of the response amplitude or time course. […] Data not shown. […] The cartoon above the traces in FIG. 13 illustrates the schematic structure of a single subunit inserted into the membrane. The gray line corresponds to the extracellular 5HT3 receptor sequence, whereas the dark line indicates the α7 segments. Despite the low yield of expression, significant and reproducible currents were evoked by brief exposure to 5-HT.

[3] = target: T3, Chimera 2 (Homo sapiens, UniProt P36544, M226I/T225V); assay: Two electrode voltage clamp in Xenopus oocytes (POETs), agonist and modulator responses; type: cell-based; parameters: expressed in transfected cells; host or cells: Xenopus laevis oocytes (transient, A2)
T3 sequence (P36544 with tags, fused parts or gaps T225V/M226I): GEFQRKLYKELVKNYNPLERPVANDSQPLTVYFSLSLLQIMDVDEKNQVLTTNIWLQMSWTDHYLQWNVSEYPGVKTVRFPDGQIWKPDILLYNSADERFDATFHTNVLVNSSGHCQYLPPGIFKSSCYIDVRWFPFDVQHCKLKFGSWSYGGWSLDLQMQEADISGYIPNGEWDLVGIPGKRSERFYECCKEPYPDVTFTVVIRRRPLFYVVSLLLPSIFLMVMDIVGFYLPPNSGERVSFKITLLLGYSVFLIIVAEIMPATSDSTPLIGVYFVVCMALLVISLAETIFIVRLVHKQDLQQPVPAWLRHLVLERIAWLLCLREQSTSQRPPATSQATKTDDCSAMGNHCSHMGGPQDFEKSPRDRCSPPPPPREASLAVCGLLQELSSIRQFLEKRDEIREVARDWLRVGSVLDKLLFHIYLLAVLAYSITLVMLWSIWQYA

[4] = target: T4, wild-type α7 nicotinic acetylcholine receptor (Homo sapiens, UniProt P36544); assay: Two electrode voltage clamp in Xenopus oocytes, agonist and modulator responses; type: cell-based
T4 construct: expressed in transfected cells; host or cells: Xenopus laevis oocytes
T4 sequence (P36544 23-502): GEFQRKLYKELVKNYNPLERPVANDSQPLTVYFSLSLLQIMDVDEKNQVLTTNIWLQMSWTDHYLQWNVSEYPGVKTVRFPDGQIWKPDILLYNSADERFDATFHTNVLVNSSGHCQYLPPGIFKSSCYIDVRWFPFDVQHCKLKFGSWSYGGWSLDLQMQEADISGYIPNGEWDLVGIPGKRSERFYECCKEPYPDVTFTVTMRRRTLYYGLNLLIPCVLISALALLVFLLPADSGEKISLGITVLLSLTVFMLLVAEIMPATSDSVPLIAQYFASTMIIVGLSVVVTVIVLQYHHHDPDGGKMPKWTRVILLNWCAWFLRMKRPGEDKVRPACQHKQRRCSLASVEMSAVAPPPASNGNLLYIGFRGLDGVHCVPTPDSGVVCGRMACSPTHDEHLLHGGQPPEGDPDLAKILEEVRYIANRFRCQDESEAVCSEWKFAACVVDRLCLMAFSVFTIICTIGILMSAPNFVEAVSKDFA

[5] = target: T5, Chimera 1 (Homo sapiens, UniProt P36544, M226I/T225V); assay: Membrane potential imaging (FLIPR-FMP) in HEK-293 cells; type: cell-based; parameters: expressed in transfected cells; settings: for Modulation of submaximum agonist-evoked membrane potential response (words): FMP
T5 sequence (P36544 with tags, fused parts or gaps T225V/M226I): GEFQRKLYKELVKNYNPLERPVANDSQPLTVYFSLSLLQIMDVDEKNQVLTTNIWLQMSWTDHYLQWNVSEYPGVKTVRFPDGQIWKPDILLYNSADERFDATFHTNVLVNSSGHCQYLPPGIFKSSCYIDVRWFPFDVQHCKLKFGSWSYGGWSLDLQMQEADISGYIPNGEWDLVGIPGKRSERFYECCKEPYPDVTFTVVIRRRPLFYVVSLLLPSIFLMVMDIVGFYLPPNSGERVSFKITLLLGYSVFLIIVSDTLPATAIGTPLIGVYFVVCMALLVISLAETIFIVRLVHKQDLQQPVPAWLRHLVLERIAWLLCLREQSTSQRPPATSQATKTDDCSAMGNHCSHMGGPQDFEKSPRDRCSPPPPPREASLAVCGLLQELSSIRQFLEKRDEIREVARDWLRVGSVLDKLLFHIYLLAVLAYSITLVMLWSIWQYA

[6] = target: T3, Chimera 2; assay: as above; type: cell-based; parameters: expressed in transfected cells; settings: for Modulation of submaximum agonist-evoked membrane potential response (words): FMP
[7] = target: T5, Chimera 1; assay: Two electrode voltage clamp in Xenopus oocytes (POETs), agonist and modulator responses; type: cell-based; parameters: expressed in transfected cells; host or cells: Xenopus laevis oocytes (transient, A1)
[8] = target: T6, rat brain α7* nicotinic acetylcholine receptors (Rattus norvegicus, UniProt Q05941); assay: [3H]A-585539 radioligand binding, rat brain homogenates
T6 construct: expressed both as a native (rat cortex) or α7/5-HT3 chimeric receptor; from tissue; host or cells: rat brain / rat cortex homogenates
T6 sequence (Q05941 23-502): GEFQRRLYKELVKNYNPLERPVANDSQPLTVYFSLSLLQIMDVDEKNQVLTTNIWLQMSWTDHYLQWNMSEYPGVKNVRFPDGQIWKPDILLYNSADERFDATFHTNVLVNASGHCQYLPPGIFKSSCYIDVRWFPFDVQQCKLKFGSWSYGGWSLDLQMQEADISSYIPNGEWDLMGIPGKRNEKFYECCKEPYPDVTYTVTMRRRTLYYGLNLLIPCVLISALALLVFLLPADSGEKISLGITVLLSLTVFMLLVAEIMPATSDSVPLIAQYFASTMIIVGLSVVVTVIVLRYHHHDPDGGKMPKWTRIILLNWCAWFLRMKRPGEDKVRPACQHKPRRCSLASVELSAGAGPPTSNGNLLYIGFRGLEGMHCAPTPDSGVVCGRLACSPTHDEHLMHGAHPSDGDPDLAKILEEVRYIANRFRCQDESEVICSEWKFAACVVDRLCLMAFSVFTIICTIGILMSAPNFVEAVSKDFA

[9] = target: T3, Chimera 2; assay: [3H]A-585539 radioligand binding, HEK-293 membranes/homogenates; parameters: expressed in transfected cells
[10] = target: T3, Chimera 2; assay: Whole cell patch clamp in HEK-293 cells; type: cell-based; parameters: expressed in transfected cells
[11] = read-out: Maximum efficacy (mean±S.E.M.), agonist-evoked current
[12] = HEK293, read-out: Maximum efficacy (mean±S.E.M.), membrane potential imaging, HEK-293 cells
[13] = read-out: Agonist potency, membrane potential imaging: EC50 (95% C.I.), HEK-293 cells
[14] = HEK-293 cells, listed as genistein

Emax ([1]; Xenopus oocytes, read-out: Maximum activation): 100%
Agonist-evoked current [2]: significant inward currents
Compound: NCCc1c[nH]c2ccc(O)cc12 [5-HT, 5-hydroxytryptamine]

Compound: Br.CO[C@H]1CC=C2CCN3CCC4=C(CC(=O)OC4)[C@]23C1 [dihydro-β-erythroidine hydrobromide]
Effect on the inward current evoked by NS-1738 alone ([3]; Xenopus oocytes, data not shown): inhibited the inward current observed during the NS-1738 exposure

Compound: C[N+](C)(C)CCO [Choline, choline]
EC50 ([4]; Agonist potency, two electrode voltage clamp, Xenopus oocyte: EC50 (95% C.I.), peak current amplitude): 1120 µM
Emax [4, 11]: 81 ± 4%
Emax [5, 12]: 132 ± 9%
FLIPR-FMP pEC50 ± SEM ([5]; HEK-293 cells): 2.9 ± 0.06
EC50 [5, 13]: 285 µM
Emax [6, 12]: 101 ± 6%
FLIPR-FMP pEC50 ± SEM ([6]; HEK-293 cells): 4.4 ± 0.04
EC50 [6, 13]: 37.8 µM
Electrophysiology (POETs) pEC50 ± SEM ([7]; Xenopus oocytes): 2.9 ± 0.06
EC50 ([7]; read-out: Agonist potency, two electrode voltage clamp, Xenopus oocyte: EC50 (95% C.I.), peak current amplitude): 1510 µM
Emax [7, 11]: 91 ± 7%
Electrophysiology (POETs) pEC50 ± SEM [3]: 3.7 ± 0.08
EC50 ([3]; read-out: Agonist potency, two electrode voltage clamp, Xenopus oocyte: EC50 (95% C.I.)): 214 µM
Emax [3, 11]: 78 ± 4%

Compound: O=c1c(-c2ccc(O)cc2)coc2cc(O)cc(O)c12 [Genistein, genistein]
Percentage potentiation of submaximum agonist-evoked responses (mean±S.E.M.) ([4]; 100 μM ACh): 246±17%
EC50 ([4]; Positive allosteric modulation potency, two electrode voltage clamp: EC50 (95% C.I.), submaximum ACh (100 μM)-evoked response): 10.6 µM
Direct current activation by modulator alone ([4]; Xenopus oocytes): did not activate currents
Effect of modulator on ACh-evoked current (words) ([4]; Xenopus oocytes): primarily increasing the current amplitude
Fold increase of submaximum ACh-evoked currents ([4]; Xenopus oocytes): 2-3 fold
Percentage potentiation of submaximum agonist-evoked responses (mean±S.E.M.) ([1]; 1-3 μM 5-HT): 52±7%
Direct current activation by modulator alone ([1]; Xenopus oocytes): did not activate currents
Effect of modulator on agonist (5-HT)-evoked current ([1]; Xenopus oocytes): Neither compound increased the responses
Observed % inhibitory effect on submaximum 5-HT-evoked response ([1]; at 30 μM): ~48%^a at 30
inhibition at 30 µM ([1]; at 30 μM, read-out: Observed % inhibitory effect on submaximum 5-HT-evoked response): ~50%
Effect on [3H]A-585539 saturation binding ([8]; 10 μM): did not alter the saturation profile; also recorded: did not alter the saturation binding
Competition / displacement of [3H]A-585539 binding ([8]; rat cortex, increasing concentrations): neither compound effectively displaced the binding
Modulation of submaximum agonist-evoked membrane potential response (words) ([5]; HEK-293 cells): unable to do so
Modulation of submaximum agonist-evoked membrane potential response (words) [5, 14]: not effective as positive allosteric modulator; also recorded: inhibited Chimera 1
IC50 ([5]; read-out: FMP imaging: IC50 (95% C.I.), inhibition of agonist-evoked response, submaximum NS6784): 23.3 µM
Maximum positive allosteric modulation efficacy ([5]; submaximum NS6784 120-200 nM): 14±3%
Modulation of submaximum agonist-evoked membrane potential response (words) ([6]; HEK-293 cells): enhanced agonist-evoked depolarization
Modulation of submaximum agonist-evoked membrane potential response (words) ([6]; HEK-293 cells, listed as genestein): very effective
Modulation of submaximum agonist-evoked membrane potential response (words) [6, 14]: potentiated submaximum NS6784 evoked responses; also recorded: potentiated Chimera 2 receptors
EC50 ([6]; read-out: FMP imaging: positive allosteric modulation EC50 (95% C.I.), submaximum NS6784 (60-70 nM)): 4.3 µM
Maximum positive allosteric modulation efficacy ([6]; submaximum NS6784 60-70 nM): 221±30%
Effect on [3H]A-585539 saturation binding ([9]; 10 μM): did not alter the saturation profile; also recorded: did not alter the saturation binding
Competition / displacement of [3H]A-585539 binding ([9]; increasing concentrations): neither compound effectively displaced the binding
Directly evoked peak response normalized to 100 μM ACh ([10]; 100 μM): 72.6±22.2%
Directly evoked total charge (integral) normalized to 100 μM ACh ([10]; 100 μM): 162.5±5.3%
Direct current activation by modulator alone ([10]; genistein 100 μM, 5-HI 10 mM): directly activated the Chimera 2 receptor current
Positive allosteric modulation of ACh-evoked current ([10]; genistein 30-50 μM, 5-HI 1 mM): effective as positive allosteric modulators
Percentage potentiation of submaximum agonist-evoked responses (mean±S.E.M.) ([7]; 100 μM ACh): 65±27%
Direct current activation by modulator alone ([7]; Xenopus oocytes): did not activate currents
inhibition at 100 µM ([7]; read-out: Observed % inhibitory effect on submaximum ACh-evoked response): ~35%
Percentage potentiation of submaximum agonist-evoked responses (mean±S.E.M.) ([3]; 10-30 μM ACh): 234±19%
Direct current activation by modulator alone ([3]; Xenopus oocytes): activated currents at 30 and 100 μM; also recorded: evoked unique agonist-like current
Effect of modulator on ACh-evoked current (words) ([3]; Xenopus oocytes): potentiated peak amplitude of ACh current responses
Fold increase of submaximum ACh-evoked currents ([3]; Xenopus oocytes): 2-3 fold
Effect of modulator on ACh-evoked current (words) ([3]; Xenopus oocytes, listed as genestein): potentiated ACh responses in Chimera 2
EC50 ([3]; read-out: Positive allosteric modulation potency, two electrode voltage clamp: EC50 (95% C.I.)): 5.2 µM
